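96-well plates; 48 h exposure; 5 concentrations. Endpoints by linear interpolation between flanking doses. Not reached: highest tested concentration assigned. At the TGI there is no net growth.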
Tests used:
Experiment in all cases: inhibition of tumour cell growth, NCI panel, 48 h
[1] = system: SK-MEL-2 melanoma
[2] = system: DU-145 prostate
[3] = system: MDA-MB-435
[4] = system: NCI-H23 lung
[5] = system: OVCAR-4 ovarian
[6] = system: SNB-75 CNS
[7] = system: HS 578T breast
[8] = system: EKVX NSCLC
[9] = system: HCT-15 colon
[10] = system: MCF7 breast
[11] = system: SF-295 CNS
[12] = system: UO-31 renal
[13] = system: OVCAR-5 ovarian
[14] = system: RPMI-8226 leukemia
[15] = system: HCT-116 colon
[16] = system: KM12 colon
[17] = system: UACC-257 melanoma
[18] = system: MALME-3M melanoma
[19] = system: M14 melanoma
[20] = system: OVCAR-8 ovarian
[21] = system: ACHN renal
[22] = system: SR leukemia
[23] = system: RXF 393 renal
[24] = system: T-47D breast
[25] = system: K-562 leukemia
[26] = system: SF-268 CNS
[27] = system: PC-3 prostate
[28] = system: TK-10 renal
[29] = system: SK-OV-3 ovarian
[30] = system: 786-0 renal
[31] = system: MOLT-4 leukemia
[32] = system: NCI-H226 lung
[33] = system: LOX IMVI melanoma
[34] = system: SW-620 colon
[35] = system: NCI/ADR-RES ovarian
[36] = system: SNB-19 CNS
[37] = system: NCI-H460 lung
[38] = system: SF-539 CNS
[39] = system: MDA-MB-231 breast
[40] = system: IGROV1 ovarian
[41] = system: A549 NSCLC
[42] = system: U251 CNS
[43] = system: CCRF-CEM leukemia
[44] = system: SK-MEL-28 melanoma
[45] = system: NCI-H522 lung
[46] = system: OVCAR-3 ovarian
[47] = system: MDA-N
[48] = system: HCC-2998 colon
[49] = system: HOP-62 NSCLC
[50] = system: HL-60(TB) leukemia
[51] = system: SN12C renal
[52] = system: SK-MEL-5 melanoma
[53] = system: HT29 colon
[54] = system: UACC-62 melanoma
[55] = system: HOP-92 NSCLC
[56] = system: A498 renal
[57] = system: CAKI-1 renal

CCn1c(=O)c2nc(SC)sc2n(-c2ccccc2)c1=S
TGI [1]: > 100 µM | TGI [2]: > 100 µM | TGI [3]: > 100 µM | TGI [4]: > 100 µM | TGI [5]: > 100 µM | TGI [6]: > 100 µM | TGI [7]: > 100 µM | TGI [8]: > 100 µM | TGI [9]: > 100 µM | TGI [10]: > 100 µM | TGI [11]: > 100 µM | TGI [12]: 35.4 µM | TGI [13]: > 100 µM | TGI [14]: > 100 µM | TGI [15]: > 100 µM | TGI [16]: > 100 µM | TGI [17]: > 100 µM | TGI [18]: > 100 µM | TGI [19]: > 100 µM | TGI [20]: > 100 µM | TGI [21]: > 100 µM | TGI [22]: > 100 µM | TGI [23]: > 100 µM | TGI [24]: > 100 µM | TGI [25]: 55.1 µM | TGI [26]: > 100 µM | TGI [27]: > 100 µM | TGI [28]: > 100 µM | TGI [29]: > 100 µM | TGI [30]: > 100 µM | TGI [31]: > 100 µM | TGI [32]: > 100 µM | TGI [33]: > 100 µM | TGI [34]: > 100 µM | TGI [35]: > 100 µM | TGI [36]: > 100 µM | TGI [37]: > 100 µM | TGI [38]: > 100 µM | TGI [39]: > 100 µM | TGI [40]: > 100 µM | TGI [41]: > 100 µM | TGI [42]: > 100 µM | TGI [43]: > 100 µM | TGI [44]: > 100 µM | TGI [45]: > 100 µM | TGI [46]: > 100 µM | TGI [47]: > 100 µM | TGI [48]: > 100 µM | TGI [49]: > 100 µM | TGI [50]: 19.9 µM | TGI [51]: > 100 µM | TGI [52]: > 100 µM | TGI [53]: > 100 µM | TGI [54]: 97.6 µM | TGI [55]: > 100 µM

Cc1ccc2c(c1)CC1(Cc3cc(C)ccc3C1=O)C2=O
TGI [1]: > 100 µM | TGI [2]: > 100 µM | TGI [3]: > 100 µM | TGI [4]: > 100 µM | TGI [5]: > 100 µM | TGI [6]: > 100 µM | TGI [7]: > 100 µM | TGI [8]: > 100 µM | TGI [56]: > 100 µM | TGI [9]: > 100 µM | TGI [10]: > 100 µM | TGI [11]: > 100 µM | TGI [12]: > 100 µM | TGI [13]: > 100 µM | TGI [14]: > 100 µM | TGI [15]: > 100 µM | TGI [17]: > 100 µM | TGI [18]: > 100 µM | TGI [19]: > 100 µM | TGI [20]: > 100 µM | TGI [21]: > 100 µM | TGI [22]: > 100 µM | TGI [23]: > 100 µM | TGI [24]: > 100 µM | TGI [25]: > 100 µM | TGI [26]: > 100 µM | TGI [27]: > 100 µM | TGI [28]: > 100 µM | TGI [29]: > 100 µM | TGI [30]: > 100 µM | TGI [31]: > 100 µM | TGI [33]: > 100 µM | TGI [34]: > 100 µM | TGI [35]: > 100 µM | TGI [36]: > 100 µM | TGI [37]: > 100 µM | TGI [38]: > 100 µM | TGI [39]: > 100 µM | TGI [40]: > 100 µM | TGI [41]: > 100 µM | TGI [42]: > 100 µM | TGI [43]: > 100 µM | TGI [44]: > 100 µM | TGI [45]: > 100 µM | TGI [46]: > 100 µM | TGI [47]: > 100 µM | TGI [48]: > 100 µM | TGI [49]: > 100 µM | TGI [57]: > 100 µM | TGI [50]: > 100 µM | TGI [52]: > 100 µM | TGI [53]: > 100 µM | TGI [55]: > 100 µM
